# Reference: patent US8791132B2, “Compounds and methods for treatment of hypertension” (Medivation Technologies, Inc., priority 2011, dated 2014)
# Where two headings read alike, the source gives them in different places.
# Tests used:
# [1] = target: T1, human recombinant adrenergic α2B receptor (Homo sapiens, UniProt P18089); experiment: Radioligand binding, adrenergic α2B ([3H]Rauwolscine); conditions: for Percentage inhibition of ligand binding, Adrenergic α2B (0.03 μM) / Percentage inhibition of ligand binding, Adrenergic α2B: 0.03 µM
# T1 construct: expressed in transfected cells; host or cells: CHO-K1
# T1 sequence (P18089 1-450): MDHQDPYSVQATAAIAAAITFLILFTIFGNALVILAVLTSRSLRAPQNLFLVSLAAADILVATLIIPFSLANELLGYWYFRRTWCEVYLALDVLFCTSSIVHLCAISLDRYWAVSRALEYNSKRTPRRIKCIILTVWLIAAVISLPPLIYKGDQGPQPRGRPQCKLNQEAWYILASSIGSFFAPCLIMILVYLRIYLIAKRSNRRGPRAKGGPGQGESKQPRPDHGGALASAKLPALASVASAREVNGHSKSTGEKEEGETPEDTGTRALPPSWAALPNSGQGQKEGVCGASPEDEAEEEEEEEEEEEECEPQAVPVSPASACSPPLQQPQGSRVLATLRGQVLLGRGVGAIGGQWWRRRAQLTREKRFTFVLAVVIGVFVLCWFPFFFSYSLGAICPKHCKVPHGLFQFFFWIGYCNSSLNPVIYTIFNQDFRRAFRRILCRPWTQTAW
# Procedure, shortened: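 Assay used CHO-K1-expressed human α2B receptor in Tris-HCl pH 7.4 buffer with MgCl2, EDTA and BSA; 60 min incubation at 25 °C.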
# [2] = target: T2, human recombinant adrenergic α2A receptor (Homo sapiens, UniProt P08913); experiment: Radioligand binding, adrenergic α2A ([3H]MK-912); conditions: for Percentage inhibition of ligand binding, Adrenergic α2A (0.1 μM) / Percentage inhibition of ligand binding, Adrenergic α2A: compound at 0.1 μM, 0.1 µM; for Percentage inhibition of ligand binding, Adrenergic α2A: repeat assays, each datapoint shown
# T2 construct: expressed in transfected cells; host or cells: insect Sf9 cells
# T2 sequence (P08913 1-465): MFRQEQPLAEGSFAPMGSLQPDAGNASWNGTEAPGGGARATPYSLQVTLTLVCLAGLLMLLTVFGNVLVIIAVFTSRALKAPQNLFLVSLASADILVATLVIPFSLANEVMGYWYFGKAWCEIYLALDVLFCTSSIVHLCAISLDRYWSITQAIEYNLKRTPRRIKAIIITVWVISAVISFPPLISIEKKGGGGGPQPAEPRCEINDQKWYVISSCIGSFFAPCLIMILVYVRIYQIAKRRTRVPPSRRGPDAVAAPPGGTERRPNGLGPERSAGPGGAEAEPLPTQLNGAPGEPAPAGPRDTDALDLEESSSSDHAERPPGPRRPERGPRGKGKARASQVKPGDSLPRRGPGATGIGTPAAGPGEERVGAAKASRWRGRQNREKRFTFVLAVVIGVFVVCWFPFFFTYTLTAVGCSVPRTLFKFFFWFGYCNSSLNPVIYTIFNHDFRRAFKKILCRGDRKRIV
# Procedure, shortened: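 Sf9-expressed receptor was incubated with compound for 60 min at 25 °C in modified Tris-HCl buffer, pH 7.4. Nonspecific binding was taken as that remaining with 10 μM WB-4101.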
# [3] = target: T3, rat adrenergic α1B receptor (Rattus norvegicus, UniProt P15823); experiment: Radioligand binding, adrenergic α1B ([3H]Prazosin); conditions: for Percentage inhibition of ligand binding, Adrenergic α1B (0.1 μM) / Percentage inhibition of ligand binding, Adrenergic α1B: 0.1 µM
# T3 construct: rat adrenergic α1B receptor obtained from Wistar Rat liver; from tissue; host or cells: Wistar rat liver
# T3 sequence (P15823 1-515): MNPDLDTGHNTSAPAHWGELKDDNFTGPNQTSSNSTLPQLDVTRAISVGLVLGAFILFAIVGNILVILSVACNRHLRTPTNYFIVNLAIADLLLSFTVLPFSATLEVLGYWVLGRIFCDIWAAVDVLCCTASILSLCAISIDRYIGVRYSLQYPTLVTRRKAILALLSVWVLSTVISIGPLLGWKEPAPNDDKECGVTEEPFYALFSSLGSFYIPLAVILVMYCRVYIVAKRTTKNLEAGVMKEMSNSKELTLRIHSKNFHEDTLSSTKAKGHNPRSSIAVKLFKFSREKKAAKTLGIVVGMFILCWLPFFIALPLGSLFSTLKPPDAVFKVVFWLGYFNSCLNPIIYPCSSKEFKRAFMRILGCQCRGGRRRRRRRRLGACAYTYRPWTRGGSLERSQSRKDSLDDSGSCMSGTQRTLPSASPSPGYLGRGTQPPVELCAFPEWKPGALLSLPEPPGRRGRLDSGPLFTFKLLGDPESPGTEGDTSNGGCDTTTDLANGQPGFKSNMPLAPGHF
# Procedure, shortened: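 Incubation ran 60 min at 25 °C in Tris-HCl buffer (50 mM, pH 7.4, 0.5 mM EDTA) with Wistar rat liver α1B receptor. 10 μM phentolamine set non-specific binding.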
# [4] = compound at 0.03 μM, [3H]Rauwolscine, repeat datapoints each shown
# [5] = [3H]MK-912, repeat datapoints each shown
# [6] = compound at 0.1 μM, [3H]Prazosin, repeat datapoints each shown
# [7] = read-out: Percentage inhibition of ligand binding, Adrenergic α2B (0.03 μM), compound at 0.03 μM, [3H]Rauwolscine, repeat datapoints each shown
# [8] = read-out: Percentage inhibition of ligand binding, Adrenergic α2A (0.1 μM), compound at 0.1 μM, [3H]MK-912, repeat datapoints each shown
# [9] = read-out: Percentage inhibition of ligand binding, Adrenergic α1B (0.1 μM), compound at 0.1 μM, [3H]Prazosin, repeat datapoints each shown
# [10] = 0.03 μM compound, read-out: Percentage inhibition of ligand binding, Adrenergic α2B
# [11] = 0.1 μM compound, read-out: Percentage inhibition of ligand binding, Adrenergic α2A
# [12] = compound at 0.03 μM, [3H]Rauwolscine, repeat assays, each datapoint shown
# [13] = compound at 0.1 μM, [3H]Prazosin, repeat assays, each datapoint shown
compound,measurement,setting,value
"Cc1cnc2c(c1)c1c(n2CC(C)(O)c2ccc(F)cc2)CCN2CCCC12 (single isomer, unassigned) [II-149b, 2-(4-fluoro-phenyl)-1-(9-methyl-1,2,3,4,5,10c-hexahydro-3a,6,7-triazacyclopenta[c]fluoren-6-yl)-propan-2-ol]","Percentage inhibition of ligand binding, Adrenergic α2B (0.03 μM)",[1]; [4],96%
same,"Percentage inhibition of ligand binding, Adrenergic α2A (0.1 μM)",[2]; [5],27%
same,"Percentage inhibition of ligand binding, Adrenergic α1B (0.1 μM)",[3]; [6],59%
Cc1ccc(CCn2c3c(c4c(F)ccc(Cl)c42)CN(C)CC3)cn1 [II-253],inhibition at 0.03 µM,[1]; [7],16%
same,inhibition at 0.1 µM,[2]; [8],54%
same,inhibition at 0.1 µM,[3]; [9],9%
"CC(O)(Cn1c2c(c3cc(Cl)cnc31)C1CCCN1CC2)c1cccnc1 (single isomer, unassigned) [IV-210d]","Percentage inhibition of ligand binding, Adrenergic α2B (0.03 μM)",[1]; [4],87%
same,"Percentage inhibition of ligand binding, Adrenergic α2A (0.1 μM)",[2]; [5],13%
same,"Percentage inhibition of ligand binding, Adrenergic α1B (0.1 μM)",[3]; [6],19%
CC(O)(Cn1c2c(c3cc(CO)ccc31)CNCC2)c1cccnc1 (stereo not drawn) [II-104],inhibition at 0.03 µM,[1]; [10],21%
same,inhibition at 0.1 µM,[2]; [11],10%
same,inhibition at 0.1 µM,"[3]; 0.1 μM compound, read-out: Percentage inhibition of ligand binding, Adrenergic α1B",3%
Cc1ccc2c(c1)c1c(n2CC(CN)c2ccncc2)CCN(C)C1 (stereo not drawn) [II-221],inhibition at 0.03 µM,[1]; [7],0%
same,inhibition at 0.1 µM,[2]; [8],10%
same,inhibition at 0.1 µM,[3]; [9],-1%
"Cc1ccc2c(c1)c1c(n2CC(C)(O)c2ccccn2)CN(C)CC1 (single isomer, unassigned) [16b, 1-(2,6-dimethyl-1,2,3,4-tetrahydro-β-carbolin-9-yl)-2-pyridin-2-yl-propan-2-ol]","Percentage inhibition of ligand binding, Adrenergic α2B",[1]; [12],2%
same,"Percentage inhibition of ligand binding, Adrenergic α2A",[2]; [3H]MK-912,2%
same,"Percentage inhibition of ligand binding, Adrenergic α1B",[3]; [13],16%
"Cc1ccc2c(c1)c1c(n2CC(C)(O)c2cccnc2)CC(C)N(C)C1 (single isomer, unassigned) [II-146b, 2-(pyridin-3-yl)-1-(2,3,8-trimethyl-3,4-dihydro-1H-pyrido[4,3-b]indol-5(2H)-yl)propan-2-ol]","Percentage inhibition of ligand binding, Adrenergic α2B (0.03 μM)",[1]; [4],43%
same,"Percentage inhibition of ligand binding, Adrenergic α2A (0.1 μM)",[2]; [5],5%
same,"Percentage inhibition of ligand binding, Adrenergic α1B (0.1 μM)",[3]; [6],13%
"Cc1ccc2c(c1)c1c(n2CC(C)(O)c2ccc[nH]c2=O)CCN(C)C1 (stereo not drawn) [II-143, 3-(1-(1,2,3,4-tetrahydro-2,8-dimethylpyrido[4,3-b]indol-5-yl)-2-hydroxypropan-2-yl)pyridin-2(1H)-one]",inhibition at 0.03 µM,[1]; [7],22%
same,inhibition at 0.1 µM,[2]; [8],-3%
same,inhibition at 0.1 µM,[3]; [9],13%
"Cc1ccc2c(c1)c1c(n2CC(CCO)c2ccncc2)CCN(C)C1 (stereo not drawn) [II-224, 4-(2,8-dimethyl-1,2,3,4-tetrahydro-pyrido[4,3-b]indol-5-yl)-3-pyridin-4-yl-butan-1-ol]",inhibition at 0.03 µM,[1]; [7],68%
same,inhibition at 0.1 µM,[2]; [8],22%
same,inhibition at 0.1 µM,[3]; [9],13%
"Cc1ccc2c(c1)c1c(n2CC(C)(OC(=O)C(C)C)c2cccnc2)CCN(C)C1 (single isomer, unassigned) [146b]","Percentage inhibition of ligand binding, Adrenergic α2B (0.03 μM)",[1]; [4],63%
same,"Percentage inhibition of ligand binding, Adrenergic α2A (0.1 μM)",[2]; [5],21%
same,"Percentage inhibition of ligand binding, Adrenergic α1B (0.1 μM)",[3]; [6],11%
"Cc1ccc2c(c1)c1c(n2CC(O)c2cccnc2)CCNC1 (stereo not drawn) [compound 9, 2-(8-methyl-1,2,3,4-tetrahydro-pyrido[4,3-b]indol-5-yl)-1-pyridin-3-yl-ethanol]","Percentage inhibition of ligand binding, Adrenergic α2B",[1]; [12],36%
same,"Percentage inhibition of ligand binding, Adrenergic α2A",[2]; [3H]MK-912,−4%
same,"Percentage inhibition of ligand binding, Adrenergic α1B",[3]; [13],5%
"Cc1ccc2c(c1)c1c(n2CC(C)(O)c2cncc(C(=O)O)c2)CCN(C)C1 (stereo not drawn) [II-141, 5-(1-(1,2,3,4-tetrahydro-2,8-dimethylpyrido[4,3-b]indol-5-yl)-2-hydroxypropan-2-yl)pyridine-3-carboxylic acid]",inhibition at 0.03 µM,[1]; [7],22%
same,inhibition at 0.1 µM,[2]; [8],-2%
same,inhibition at 0.1 µM,[3]; [9],7%
"Cc1ccc2c(c1)c1c(n2CC(O)c2ccccc2F)CN(C)CC1 (single isomer, unassigned) [II-49a, 2-(2,6-dimethyl-3,4-dihydro-1H-pyrido[3,4-b]indol-9(2H)-yl)-1-(2-fluorophenyl)ethanol]",inhibition at 0.03 µM,[1]; [10],43%
same,inhibition at 0.1 µM,[2]; [11],34%
same,"Percentage inhibition of ligand binding, Adrenergic α1B",[3]; 0.1 μM compound,47%
"Cc1ccc2c(c1)c1c(n2CC(O)c2ccncc2Cl)CCN(C)C1 (single isomer, unassigned) [135b]","Percentage inhibition of ligand binding, Adrenergic α2B (0.03 μM)",[1]; [4],68%
same,"Percentage inhibition of ligand binding, Adrenergic α2A (0.1 μM)",[2]; [5],22%
same,"Percentage inhibition of ligand binding, Adrenergic α1B (0.1 μM)",[3]; [6],30%
"CC1Cc2c(c3cc(Cl)ccc3n2CC(C)(O)c2cccnc2)CN1C (single isomer, unassigned) [II-147b, 1-(8-chloro-2,3-dimethyl-3,4-dihydro-1H-pyrido[4,3-b]indol-5(2H)-yl)-2-(pyridin-3-yl)propan-2-ol]","Percentage inhibition of ligand binding, Adrenergic α2B (0.03 μM)",[1]; [4],66%
same,"Percentage inhibition of ligand binding, Adrenergic α2A (0.1 μM)",[2]; [5],15%
same,"Percentage inhibition of ligand binding, Adrenergic α1B (0.1 μM)",[3]; [6],20%
"Cc1cnc2c(c1)c1c(n2CC(O)c2ccncc2)CCNC1 (stereo not drawn) [compound 58, 2-(3-methyl-5,6,7,8-tetrahydro-1,6,9-triaza-fluoren-9-yl)-1-pyridin-4-yl-ethanol]","Percentage inhibition of ligand binding, Adrenergic α2B",[1]; [12],26%
same,"Percentage inhibition of ligand binding, Adrenergic α2A",[2]; [3H]MK-912,−1%
same,"Percentage inhibition of ligand binding, Adrenergic α1B",[3]; [13],21%
"Cc1ccc2c(c1)c1c(n2CC(c2ccc(F)cc2)N(C)C)CCN(C)C1 (single isomer, unassigned) [II-14a, 2-(2,8-dimethyl-3,4-dihydro-1H-pyrido[4,3-b]indol-5(2H)-yl)-1-(4-fluorophenyl)-N,N-dimethylethanamine]","Percentage inhibition of ligand binding, Adrenergic α2B",[1]; 0.03 μM compound,88%
same,inhibition at 0.1 µM,[2]; [11],34%
same,"Percentage inhibition of ligand binding, Adrenergic α1B",[3]; 0.1 μM compound,30%
